Measurements from patent US8822503B2, “2-pyridone compounds” (Taisho Pharmaceutical Co., Ltd, priority 2009, dated 2014).

Biological target: T1, human liver GK (Homo sapiens, UniProt P35557)
T1 construct: GST (glutathione S-transferase) (N); made in house; host or cells: E. coli
T1 sequence (P35557 1-466 isoform P35557-2): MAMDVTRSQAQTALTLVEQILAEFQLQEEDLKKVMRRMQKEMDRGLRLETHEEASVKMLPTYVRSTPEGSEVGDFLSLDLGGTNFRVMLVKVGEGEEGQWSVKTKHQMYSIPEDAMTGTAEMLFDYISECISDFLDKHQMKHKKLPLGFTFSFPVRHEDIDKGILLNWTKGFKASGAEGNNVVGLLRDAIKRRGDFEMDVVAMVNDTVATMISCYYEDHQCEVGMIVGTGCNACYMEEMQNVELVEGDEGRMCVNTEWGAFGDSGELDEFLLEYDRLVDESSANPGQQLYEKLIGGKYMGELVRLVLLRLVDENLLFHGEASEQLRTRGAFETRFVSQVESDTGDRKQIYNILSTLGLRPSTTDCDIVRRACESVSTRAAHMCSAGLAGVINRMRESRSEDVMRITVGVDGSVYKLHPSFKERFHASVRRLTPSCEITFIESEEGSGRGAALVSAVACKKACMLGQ
Assay: GK activation test
Assay type: biochemical
Settings: test compound concentration needed to activate 50% of maximum activation ability; 4 mM 14C-labeled glucose, 2 mM ATP, room temperature, 20 minutes
Method in brief: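 GST-tagged human liver GK from E. coli (0.24 μg/well) with 4 mM 14C-glucose, 2 mM ATP in Hepes-KOH pH 7.1, KCl, MgCl2, DTT, 1% DMSO, 20 min room temperature. Labeled glucose 6-phosphate captured on anion resin, eluted and counted. EC50 = concentration giving half of maximal activation.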

Structure (SMILES)	EC50
CSc1ccc(/C(=C\C2CCCC2)c2ccc(C(C)C)c(=O)[nH]2)cc1 [Example 1-3, 6-{(E)-2-Cyclopentyl-1-[4-(methylsulfanyl)phenyl]ethenyl}-3-(propan-2-yl)pyridin-2(1H)-one]	10 to 500 nM
CC(C)c1ccc(/C(=C/C2CCCC2)c2ccc(S(C)(=O)=O)cc2)[nH]c1=O [Example 1-4, 6-{(E)-2-Cyclopentyl-1-[4-(methylsulfonyl)phenyl]ethenyl}-3-(propan-2-yl)pyridin-2(1H)-one]	10 to 500 nM
CCOc1ccc(/C(=C\C2CCOCC2)c2ccc(C3CC3)c(=O)[nH]2)cc1 [Example 1-52, 3-Cyclopropyl-6-[(E)-1-(4-ethoxyphenyl)-2-(tetrahydro-2H-pyran-4-yl)ethenyl]pyridin-2(1H)-one]	500 to 3000 nM
Cc1ccc(/C(=C/C2CCCC2)c2ccc(S(=O)(=O)C3CC3)cc2)[nH]c1=O [Example 1-11, 6-{(E)-2-Cyclopentyl-1-[4-(cyclopropylsulfonyl)phenyl]ethenyl}-3-methylpyridin-2(1H)-one]	10 to 500 nM
Cc1ccc(C(CC2CCCCC2)c2ccc(S(C)(=O)=O)cc2)[nH]c1=O (stereo not drawn) [Example 2-17, 6-{2-Cyclohexyl-1-[4-(methylsulfonyl)phenyl]ethyl}-3-methylpyridin-2(1H)-one]	500 to 3000 nM
CCc1ccc(/C(=C/C2CCCC2)c2ccc(S(=O)(=O)CCCN(CC)CC)c(Cl)c2)[nH]c1=O [Example 1-27, 6-[(E)-1-(3-Chloro-4-{[3-(diethylamino)propyl]sulfonyl}phenyl)-2-cyclopentylethenyl]-3-ethylpyridin-2(1H)-one]	10 to 500 nM
Cc1ccc(/C(=C/C2CCOCC2)c2ccc(S(C)(=O)=O)c(Cl)c2)[nH]c1=O [Example 1-56, 6-{(E)-1-[3-Chloro-4-(methylsulfonyl)phenyl]-2-(tetrahydro-2H-pyran-4-yl)ethenyl}-3-methylpyridin-2(1H)-one]	500 to 3000 nM
CCN(CC)CCCS(=O)(=O)c1ccc(C(CC2CCCC2)c2ccc(C)c(=O)[nH]2)cc1Cl (stereo not drawn) [Example 2-13, 6-[1-(3-Chloro-4-{[3-(diethylamino)propyl]sulfonyl}phenyl)-2-cyclopentylethyl]-3-methylpyridin-2(1H)-one]	500 to 3000 nM
CS(=O)(=O)c1ccc(/C(=C\CCCO)c2ccc(C3CC3)c(=O)[nH]2)cc1 [Example 1-97, 3-Cyclopropyl-6-{(1E)-5-hydroxy-1-[4-(methylsulfonyl)phenyl]pent-1-en-1-yl}pyridin-2(1H)-one]	500 to 3000 nM
CSc1ccc(/C(=C\[C@H]2CCC(=O)C2)c2ccc(C3CC3)c(=O)[nH]2)cc1Cl [Example 1-71, 6-{(E)-1-[3-Chloro-4-(methylsulfanyl)phenyl]-2-[(1S)-3-oxocyclopentyl]ethenyl}-3-cyclopropylpyridin-2(1H)-one]	10 to 500 nM

Other lines, results leading:

EC50	Structure (SMILES)
500 to 3000 nM	CS(=O)(=O)c1ccc(/C(=C\[C@H]2CCC(=O)N2)c2ccc(C3CC3)c(=O)[nH]2)cn1 [Example 4-142, 3-Cyclopropyl-6-{(E)-1-[6-(methylsulfonyl)pyridin-3-yl]-2-[(2R)-5-oxopyrrolidin-2-yl]ethenyl}pyridin-2(1H)-one]
10 to 500 nM	COc1cc(/C(=C\[C@H]2CCC(=O)N2)c2ccc(C3CC3)c(=O)[nH]2)ccc1C(F)F [Example 4-135, 3-Cyclopropyl-6-{(E)-1-[4-(difluoromethyl)-3-methoxyphenyl]-2-[(2R)-5-oxopyrrolidin-2-yl]ethenyl}pyridin-2(1H)-one]
10 to 500 nM	Cc1ccc(/C(=C\[C@H]2CCC(=O)N2)c2ccc(C3CC3)c(=O)[nH]2)cc1 [Example 4-4, 3-Cyclopropyl-6-{(E)-1-(4-methylphenyl)-2-[(2R)-5-oxopyrrolidin-2-yl]ethenyl}pyridin-2(1H)-one]
10 to 500 nM	O=C1CC[C@H](/C=C(\c2ccc(OC3CCCC3)cc2)c2ccc(C3CC3)c(=O)[nH]2)N1 [Example 4-283, 6-{(E)-1-[4-(Cyclopentyloxy)phenyl]-2-[(2R)-5-oxopyrrolidin-2-yl]ethenyl}-3-cyclopropylpyridin-2(1H)-one]
10 to 500 nM	CC(C)c1ccc(/C(=C\[C@H]2CCC(=O)N2)c2ccc(Cl)c(=O)[nH]2)cc1 [Example 4-15, 3-Chloro-6-{(E)-2-[(2R)-5-oxopyrrolidin-2-yl]-1-[4-(propan-2-yl)phenyl]ethenyl}pyridin-2(1H)-one]
500 to 3000 nM	CC(C)(C)c1ccc(C(SC2CCCC2)c2ccc(Cl)c(=O)[nH]2)cc1 (stereo not drawn) [Example 7-4, 6-[(4-tert-Butylphenyl)(cyclopentylsulfanyl)methyl]-3-chloropyridin-2(1H)-one]
3000 to 10000 nM	O=C1CC[C@H](CC(c2ccc(C(F)F)c(Cl)c2)c2ccc(C3CC3)c(=O)[nH]2)N1 (single isomer, unassigned) [Example 4-226]
500 to 3000 nM	CC(C)(C)c1ccc(/C(=C\CN2C(=O)CCC2=O)c2ccc(Cl)c(=O)[nH]2)cc1 [Example 6-9, 1-[(2E)-3-(4-tert-Butylphenyl)-3-(5-chloro-6-oxo-1,6-dihydropyridin-2-yl)prop-2-en-1-yl]pyrrolidine-2,5-dione]
500 to 3000 nM	CCCc1ccc(C(C[C@H]2CCC(=O)N2)c2ccc(Cl)c(=O)[nH]2)cc1 (single isomer, unassigned) [Example 4-312]
500 to 3000 nM	Cc1c[nH]n(C/C=C(\c2ccc(C(C)(C)C)cc2)c2ccc(Cl)c(=O)[nH]2)c1=O [Example 6-37, 6-[(1E)-1-(4-tert-Butylphenyl)-3-(4-methyl-5-oxo-2,5-dihydro-1H-pyrazol-1-yl)prop-1-en-1-yl]-3-chloropyridin-2(1H)-one]
3000 to 10000 nM	CC(C)NC(=O)Nc1ccc(/C(=C\[C@H]2CCC(=O)N2)c2ccc(Cl)c(=O)[nH]2)cc1 [Example 4-156, 1-(4-{(E)-1-(5-Chloro-6-oxo-1,6-dihydropyridin-2-yl)-2-[(2R)-5-oxopyrrolidin-2-yl]ethenyl}phenyl)-3-propan-2-ylurea]
10 to 500 nM	Cc1ccc(/C(=C\[C@H]2CCC(=O)N2)c2ccc(C3CC3)c(=O)[nH]2)cc1F [Example 4-114, 3-Cyclopropyl-6-{(E)-1-(3-fluoro-4-methylphenyl)-2-[(2R)-5-oxopyrrolidin-2-yl]ethenyl}pyridin-2(1H)-one]
10 to 500 nM	CSc1ccc(/C(=C\[C@H]2CCC(=O)N2C)c2ccc(C3CC3)c(=O)[nH]2)cc1 [Example 4-45, 3-Cyclopropyl-6-{(E)-2-[(2R)-1-methyl-5-oxopyrrolidin-2-yl]-1-[4-(methylsulfanyl)phenyl]ethenyl}pyridin-2(1H)-one]
500 to 3000 nM	CC(C)Oc1ccc(/C(=C/[C@H]2CCC(=O)N2)c2ccc(C(C)(C)C)cc2)[nH]c1=O [Example 4-166, 6-{(E)-1-(4-tert-Butylphenyl)-2-[(2R)-5-oxopyrrolidin-2-yl]ethenyl}-3-(propan-2-yloxy)pyridin-2(1H)-one]
10 to 500 nM	O=C1CC[C@H](CC(c2ccc(S(=O)(=O)C3CC3)cc2)c2ccc(C3CC3)c(=O)[nH]2)N1 (single isomer, unassigned) [Example 4-306]
3000 to 10000 nM	COc1ccc(C(C[C@H]2CCC(=O)N2)c2ccc(C3CC3)c(=O)[nH]2)cc1Cl (single isomer, unassigned) [Example 4-327]
10 to 500 nM	O=C1CC[C@H](/C=C(\c2ccc(SC3CCCC3)cc2)c2ccc(Cl)c(=O)[nH]2)N1 [Example 4-33, 3-Chloro-6-{(E)-1-[4-(cyclopentylsulfanyl)phenyl]-2-[(2R)-5-oxopyrrolidin-2-yl]ethenyl}pyridin-2(1H)-one]
500 to 3000 nM	O=C1CC[C@H](/C=C(\c2ccc(C(F)(F)F)cn2)c2ccc(C3CC3)c(=O)[nH]2)N1 [Example 4-172, 3-Cyclopropyl-6-{(Z)-2-[(2R)-5-oxopyrrolidin-2-yl]-1-[5-(trifluoromethyl)pyridin-2-yl]ethenyl}pyridin-2(1H)-one]
10 to 500 nM	CC(C)COc1ccc(/C(=C\[C@H]2CCC(=O)N2)c2ccc(Cl)c(=O)[nH]2)cc1Cl [Example 4-22, 3-Chloro-6-{(E)-1-[3-chloro-4-(2-methylpropoxy)phenyl]-2-[(2R)-5-oxopyrrolidin-2-yl]ethenyl}pyridin-2(1H)-one]
500 to 3000 nM	CSc1ccc(/C(=C\[C@H]2CCC(=O)N2)c2ccc(Cl)c(=O)[nH]2)cc1C(F)(F)F [Example 4-35, 3-Chloro-6-{(E)-1-[4-(methylsulfanyl)-3-(trifluoromethyl)phenyl]-2-[(2R)-5-oxopyrrolidin-2-yl]ethenyl}pyridin-2(1H)-one]
10 to 500 nM	COc1cc(/C(=C\[C@H]2CCC(=O)N2)c2ccc(C3CC3)c(=O)[nH]2)ccc1Cl [Example 4-124, 6-{(E)-1-(4-Chloro-3-methoxyphenyl)-2-[(2R)-5-oxopyrrolidin-2-yl]ethenyl}-3-cyclopropylpyridin-2(1H)-one]
10 to 500 nM	O=C(C1CC1)N1CC[C@H](/C=C(\c2ccc(Cl)cc2)c2ccc(C3CC3)c(=O)[nH]2)C1 [Example 4-78, 6-{(E)-1-(4-Chlorophenyl)-2-[(3R)-1-(cyclopropylcarbonyl)pyrrolidin-3-yl]ethenyl}-3-cyclopropylpyridin-2(1H)-one]
500 to 3000 nM	CC(C)c1ccc(C(C[C@H]2CCC(=O)N2)c2ccc(C3CC3)c(=O)[nH]2)cc1Cl (single isomer, unassigned) [Example 4-321]
